Data taken from the NIST ThermoML archive (doi:10.1021/je0202073).

What was measured:
[1] = xn = mol fraction of the nth substance listed; conditions: 101.3 kPa, Liquid
[2] = excess molar enthalpy (molar enthalpy of mixing); xn = mol fraction of the nth substance listed; conditions: 101.3 kPa, Liquid, Calvet calorimetry

CCOC=O [ethyl methanoate] + CC(C)(C)O
Conditions | excess molar enthalpy [kcal/mol] | excess molar volume [m3/mol]
[1], 303.15 K, x1 = 0.0451 | – | 1.65e-06
[1], 303.15 K, x1 = 0.0901 | – | 3.35e-06
[1], 303.15 K, x1 = 0.1537 | – | 5.06e-06
[1], 303.15 K, x1 = 0.1973 | – | 6.07e-06
[1], 303.15 K, x1 = 0.2481 | – | 7.02e-06
[1], 303.15 K, x1 = 0.2631 | – | 7.32e-06
[1], 303.15 K, x1 = 0.3042 | – | 7.9e-06
[1], 303.15 K, x1 = 0.3255 | – | 8.1e-06
[1], 303.15 K, x1 = 0.3448 | – | 8.3e-06
[1], 303.15 K, x1 = 0.3957 | – | 8.6e-06
[1], 303.15 K, x1 = 0.4411 | – | 8.73e-06
[1], 303.15 K, x1 = 0.4445 | – | 8.75e-06
[1], 303.15 K, x1 = 0.4964 | – | 8.79e-06
[1], 303.15 K, x1 = 0.5013 | – | 8.8e-06
[1], 303.15 K, x1 = 0.5084 | – | 8.78e-06
[1], 303.15 K, x1 = 0.5344 | – | 8.7e-06
[1], 303.15 K, x1 = 0.5515 | – | 8.64e-06
[1], 303.15 K, x1 = 0.5677 | – | 8.58e-06
[1], 303.15 K, x1 = 0.5954 | – | 8.35e-06
[1], 303.15 K, x1 = 0.6467 | – | 7.94e-06
[1], 303.15 K, x1 = 0.6956 | – | 7.42e-06
[1], 303.15 K, x1 = 0.7432 | – | 6.59e-06
[1], 303.15 K, x1 = 0.8016 | – | 5.54e-06
[1], 303.15 K, x1 = 0.8477 | – | 4.63e-06
[1], 303.15 K, x1 = 0.9067 | – | 3.28e-06
[1], 303.15 K, x1 = 0.9465 | – | 2.17e-06
[1], 318.15 K, x1 = 0.1022 | – | 4.09e-06
[1], 318.15 K, x1 = 0.1289 | – | 4.86e-06
[1], 318.15 K, x1 = 0.232 | – | 7.07e-06
[1], 318.15 K, x1 = 0.2909 | – | 7.96e-06
[1], 318.15 K, x1 = 0.3356 | – | 8.41e-06
[1], 318.15 K, x1 = 0.4076 | – | 8.97e-06
[1], 318.15 K, x1 = 0.4696 | – | 9.17e-06
[1], 318.15 K, x1 = 0.4934 | – | 9.19e-06
[1], 318.15 K, x1 = 0.5055 | – | 9.2e-06
[1], 318.15 K, x1 = 0.5111 | – | 9.19e-06
[1], 318.15 K, x1 = 0.5267 | – | 9.13e-06
[1], 318.15 K, x1 = 0.536 | – | 9.09e-06
[1], 318.15 K, x1 = 0.5637 | – | 8.91e-06
[1], 318.15 K, x1 = 0.5859 | – | 8.75e-06
[1], 318.15 K, x1 = 0.639 | – | 8.21e-06
[1], 318.15 K, x1 = 0.6902 | – | 7.6e-06
[1], 318.15 K, x1 = 0.7388 | – | 6.82e-06
[1], 318.15 K, x1 = 0.7922 | – | 5.79e-06
[1], 318.15 K, x1 = 0.8429 | – | 4.71e-06
[1], 318.15 K, x1 = 0.8913 | – | 3.45e-06
[1], 318.15 K, x1 = 0.9414 | – | 2.04e-06
[2], 299.15 K, x1 = 0.0689 | 0.141 | –
[2], 299.15 K, x1 = 0.1401 | 0.254 | –
[2], 299.15 K, x1 = 0.2146 | 0.354 | –
[2], 299.15 K, x1 = 0.2869 | 0.43 | –
[2], 299.15 K, x1 = 0.3549 | 0.478 | –
[2], 299.15 K, x1 = 0.4172 | 0.506 | –
[2], 299.15 K, x1 = 0.4738 | 0.518 | –
[2], 299.15 K, x1 = 0.5242 | 0.517 | –
[2], 299.15 K, x1 = 0.5696 | 0.515 | –
[2], 299.15 K, x1 = 0.571 | 0.511 | –
[2], 299.15 K, x1 = 0.6322 | 0.489 | –
[2], 299.15 K, x1 = 0.6996 | 0.447 | –
[2], 299.15 K, x1 = 0.7701 | 0.384 | –
[2], 299.15 K, x1 = 0.8357 | 0.301 | –
[2], 299.15 K, x1 = 0.8964 | 0.213 | –
[2], 299.15 K, x1 = 0.9485 | 0.108 | –
[2], 318.15 K, x1 = 0.0612 | 0.124 | –
[2], 318.15 K, x1 = 0.1263 | 0.219 | –
[2], 318.15 K, x1 = 0.2016 | 0.326 | –
[2], 318.15 K, x1 = 0.2725 | 0.4 | –
[2], 318.15 K, x1 = 0.3389 | 0.443 | –
[2], 318.15 K, x1 = 0.3986 | 0.471 | –
[2], 318.15 K, x1 = 0.4509 | 0.485 | –
[2], 318.15 K, x1 = 0.4911 | 0.489 | –
[2], 318.15 K, x1 = 0.511 | 0.49 | –
[2], 318.15 K, x1 = 0.5304 | 0.49 | –
[2], 318.15 K, x1 = 0.5696 | 0.484 | –
[2], 318.15 K, x1 = 0.6207 | 0.475 | –
[2], 318.15 K, x1 = 0.6806 | 0.449 | –
[2], 318.15 K, x1 = 0.7292 | 0.417 | –
[2], 318.15 K, x1 = 0.786 | 0.37 | –
[2], 318.15 K, x1 = 0.8292 | 0.322 | –
[2], 318.15 K, x1 = 0.8754 | 0.261 | –
[2], 318.15 K, x1 = 0.9191 | 0.192 | –
[2], 318.15 K, x1 = 0.9757 | 0.0729 | –
